In paper PMC10734772 (Turkish Journal of Chemistry, 2021):

Columns and labels:
Assay type in all cases: cell-based
[1] = test system: K562; test: MTT assay, K562 cells; settings: Homo sapiens, 24 h, MTT, read-out: Viability rate
[2] = test system: Nalm-6; test: MTT assay, Nalm-6 cells; settings: Homo sapiens, 24 h
[3] = test system: Molt-4; test: MTT assay, Molt-4 cells; settings: Homo sapiens, MOLT-4, 24 h, read-out: Viability rate
Description: (§1) K562, Jurkat, Molt-4, and Nalm-6 cell lines were cultured in RPMI-1640 medium (ECM2001, Euroclone), Reh cell line was cultured in DMEM medium (LM-D1111-Biosera) Hek293T cell line was cultured in IMDM medium (AL070A - HiMedia) supplemented with 10% heat-inactivated fetal bovine serum (F7524-Merck & Co., USA,) penicillin and streptomycin (P4333-Sigma Aldrich). K562, Jurkat and Molt-4 cell lines were seeded as 4x10^5/ml, Reh and Nalm-6 cell lines were seeded 5x10^5/ml, Hek293T cell line was seed as 2x10^5/ml. All cells were incubated at 5% CO2 and 37 °C. All cell lines were kindly provided by Dr. M. Sayitoglu and Dr. Ö. Hatirnaz-Ng from Acibadem University.
(§2) MTT assay is a 3-day test. On the first day, cell count was performed in Bio Rad TC-20 device with the help of trypan blue, each cell line was prepared by diluting to the specified concentrations and seeded in a 96-well plate as 100μL to each well and incubated for 1 day.
(§3) Each compound was solved in DMSO, their stock solutions (33.3, 10, 5, 1 mM, and 300 μM) were prepared by diluting with the same solvent and they were stored under −20°C when they were not used.
(§4) On the second day, stock solutions were subsequently diluted to various concentrations (0.3–200 μM) with related medium prior to experiments. Specified concentrations of the compounds were seeded in a 96-well plate as 100μL to each well and incubated for 24 h.
(§5) After incubation (on the third day), to precipitate leukemia cells, the cell plate was centrifuged at 1500 rpm for 5 min. Then, 100 μL of supernatant was removed from each well carefully and 10 μl of MTT solution (5 mg/mL) was added to each well and incubated at 37 °C for 4 h. The 50 μl of supernatant was discarded from each well and 100 μl of DMSO was added to dissolve the formazan. Plates were shaken for 45 min to dissolve the dye. Then the optical density of each well was measured by using Thermo VarioSkan Flush Multimode Reader Quantum ST5-1100 at 570 nm wavelength.
(§6) Subsequently, viability rate of the cells at each concentration, as percentage, was determined by following formula (1):
(§7) Viability rate (%)=100-[(OD(control)-OD(sample))/OD(control)×100].OD=Optical Density
(§8) The IC50 values were calculated by using GraphPad Prism. All the data presented as the mean of 6 replicates. Results were analyzed and illustrated with Graph Pad Prism (version 5; GraphPad Software, San Diego, CA, USA). Statistical analysis was performed using dose-response inhibition, log(inhibitor) vs response-variable slope, least squares (ordinary) fit.
(§9) To evaluate in-vitro anti-cancer activity of the newly synthesized compounds, they were tested by using the MTT assay in the BCR-ABL positive leukemic cell line (K562), BCR-ABL negative leukemic cell lines (Nalm-6, Molt-4, Reh and Jurkat), and non-leukemic human embryonic kidney tissue (Hek293T) cell line. […] The viability rate of each concentration was calculated by the formula stated in material and methods, the viability rate results for each cell were presented in Table S2 and Figure S44.

[4] = test system: Reh; test: MTT assay, Reh cells; settings: Homo sapiens, 24 h, read-out: Viability rate
Description: as §1, §2, §3, §4, §5, §6, §7, §8, §9

[5] = test system: Jurkat; test: MTT assay, Jurkat cells; settings: Homo sapiens, 24 h, read-out: Viability rate
Description: as §1, §2, §3, §4, §5, §6, §7, §8, §9

[6] = MTT assay, Hek293T non-leukemic control cells; settings: human, read-out: Viability rate
Description: as §1, §2, §3, §4, §5, §6, §7, §8, §9

[7] = test system: K562, Nalm-6, Molt-4, Reh, Jurkat, Hek293T cell lines; test: MTT assay, overall judgement over all cell lines; settings: overall judgement in words; for 6 and 10: on all cell lines, except Reh
Description: as §9

`COc1ccc(CN2CCN(Cc3ccc(C(=O)Nc4ccc(C)c(Nc5nccc(C)n5)c4)cc3)CC2)c(OC)c1OC` [Compound 6] gave a viability at 0.3 µM ([1]; K562, 0.3 μM) of 92.5 ± 0.11%, a viability at 0.5 µM ([1]; K562, 0.5 μM) of 91.8 ± 0.06% and a viability at 1 µM ([1]; K562, 1 μM) of 91.8 ± 0.04%. The viability at 3 µM ([1]; K562, 3 μM) was 88.7 ± 0.05%, the viability at 5 µM ([1]; K562, 5 μM) was 87.6 ± 0.05% and the viability at 10 µM ([1]; K562, 10 μM) was 87.3 ± 0.11%. For the same compound, the viability at 15 µM ([1]; K562, 15 μM) was 87.3 ± 0.1%, the viability at 20 µM ([1]; K562, 20 μM) was 86.5 ± 0.07% and the viability at 30 µM ([1]; K562, 30 μM) was 85.5 ± 0.1%. The viability at 50 µM ([1]; K562, 50 μM) was 78.1 ± 0.1%, the viability at 70 µM ([1]; K562, 70 μM) was 68.5 ± 0.05% and the viability at 100 µM ([1]; K562, 100 μM) was 67.5 ± 0.03%. It also gave a viability at 150 µM ([1]; K562, 150 μM) of 67.3 ± 0.02%, a viability at 200 µM ([1]; K562, 200 μM) of 67.2 ± 0.03% and a viability at 0.3 µM ([2]; Nalm-6, 0.3 μM, MTT, read-out: Viability rate) of 100.7 ± 0.01%. It also gave a viability at 0.5 µM ([2]; Nalm-6, 0.5 μM, MTT, read-out: Viability rate) of 100.5 ± 0.02%, a viability at 1 µM ([2]; Nalm-6, 1 μM, MTT, read-out: Viability rate) of 100.1 ± 0.03% and a viability at 3 µM ([2]; Nalm-6, 3 μM, MTT, read-out: Viability rate) of 100 ± 0.04%. For the same compound, the viability at 5 µM ([2]; Nalm-6, 5 μM, MTT, read-out: Viability rate) was 98.8 ± 0.04%, the viability at 10 µM ([2]; Nalm-6, 10 μM, MTT, read-out: Viability rate) was 98 ± 0.02% and the viability at 15 µM ([2]; Nalm-6, 15 μM, MTT, read-out: Viability rate) was 95.6 ± 0.02%. For the same compound, the viability at 20 µM ([2]; Nalm-6, 20 μM, MTT, read-out: Viability rate) was 82.6 ± 0.02%, the viability at 30 µM ([2]; Nalm-6, 30 μM, MTT, read-out: Viability rate) was 71.6 ± 0.01% and the viability at 50 µM ([2]; Nalm-6, 50 μM, MTT, read-out: Viability rate) was 55.2 ± 0.01%. The viability at 70 µM ([2]; Nalm-6, 70 μM, MTT, read-out: Viability rate) was 43.5 ± 0.01%, the viability at 100 µM ([2]; Nalm-6, 100 μM, MTT, read-out: Viability rate) was 42.6 ± 0.01% and the viability at 150 µM ([2]; Nalm-6, 150 μM, MTT, read-out: Viability rate) was 42.9 ± 0.01%. For the same compound, the viability at 200 µM ([2]; Nalm-6, 200 μM, MTT, read-out: Viability rate) was 42.8%, the IC50 ([2]; Nalm-6, MTT, range 0.3–200 μM, six replicates) was 48 µM and the viability at 0.3 µM ([3]; Molt-4, 0.3 μM) was 84.4 ± 0.14%. The viability at 0.5 µM ([3]; Molt-4, 0.5 μM) was 79.7 ± 0.1%, the viability at 1 µM ([3]; Molt-4, 1 μM) was 78.7 ± 0.09% and the viability at 3 µM ([3]; Molt-4, 3 μM) was 79.7 ± 0.18%. The viability at 5 µM ([3]; Molt-4, 5 μM) was 80.5 ± 0.16%, the viability at 10 µM ([3]; Molt-4, 10 μM) was 81.8 ± 0.07% and the viability at 15 µM ([3]; Molt-4, 15 μM) was 79.2 ± 0.15%. It also gave a viability at 20 µM ([3]; Molt-4, 20 μM) of 76 ± 0.05%, a viability at 30 µM ([3]; Molt-4, 30 μM) of 75.4 ± 0.08% and a viability at 50 µM ([3]; Molt-4, 50 μM) of 73.5 ± 0.04%. The viability at 70 µM ([3]; Molt-4, 70 μM) was 68.9 ± 0.06%, the viability at 100 µM ([3]; Molt-4, 100 μM) was 61.7 ± 0.02% and the viability at 150 µM ([3]; Molt-4, 150 μM) was 59.9 ± 0.05%. The viability at 200 µM ([3]; Molt-4, 200 μM) was 55.2 ± 0.04%, the viability at 0.3 µM ([4]; 0.3 μM) was 109.5 ± 0.02% and the viability at 0.5 µM ([4]; 0.5 μM) was 105.2 ± 0.02%. The viability at 1 µM ([4]; 1 μM) was 106.8 ± 0.01%, the viability at 3 µM ([4]; 3 μM) was 107.9 ± 0.02% and the viability at 5 µM ([4]; 5 μM) was 108.2 ± 0.01%. The viability at 10 µM ([4]; 10 μM) was 106.9 ± 0.02%, the viability at 15 µM ([4]; 15 μM) was 106.5 ± 0.02% and the viability at 20 µM ([4]; 20 μM) was 97.7 ± 0.02%. For the same compound, the viability at 30 µM ([4]; 30 μM) was 88.6 ± 0.03%, the viability at 50 µM ([4]; 50 μM) was 85.6 ± 0.02% and the viability at 70 µM ([4]; 70 μM) was 65.3 ± 0.02%. The viability at 100 µM ([4]; 100 μM) was 62.2 ± 0.01%, the viability at 150 µM ([4]; 150 μM) was 61.3 ± 0.01% and the viability at 200 µM ([4]; 200 μM) was 61.1 ± 0.02%. For the same compound, the viability at 3 µM ([5]; 3 μM) was 79.1 ± 0.02%, the viability at 5 µM ([5]; 5 μM) was 69.8 ± 0.02% and the viability at 10 µM ([5]; 10 μM) was 69.7 ± 0.05%. For the same compound, the viability at 15 µM ([5]; 15 μM) was 69.2 ± 0.02%, the viability at 20 µM ([5]; 20 μM) was 68.9 ± 0.01% and the viability at 30 µM ([5]; 30 μM) was 68.8 ± 0.03%. For the same compound, the viability at 50 µM ([5]; 50 μM) was 59.1 ± 0.03%, the viability at 70 µM ([5]; 70 μM) was 47.8 ± 0.01% and the viability at 100 µM ([5]; 100 μM) was 44 ± 0.01%. The viability at 150 µM ([5]; 150 μM) was 36.4 ± 0.01%, the viability at 200 µM ([5]; 200 μM) was 35.3 ± 0.01% and the viability at 24 h, 0.3 µM ([6]; Hek293T cells (non-leukemic control cell line), 0.3 μM) was 91.1 ± 0.15%. For the same compound, the viability at 24 h, 0.5 µM ([6]; Hek293T cells (non-leukemic control cell line), 0.5 μM) was 90.8 ± 0.14%, the viability at 24 h, 3 µM ([6]; Hek293T cells (non-leukemic control cell line), 3 μM) was 81.4 ± 0.09% and the viability at 24 h, 5 µM ([6]; Hek293T cells (non-leukemic control cell line), 5 μM) was 78.5 ± 0.14%. For the same compound, the viability at 24 h, 10 µM ([6]; Hek293T cells (non-leukemic control cell line), 10 μM) was 78.2 ± 0.02%, the viability at 24 h, 15 µM ([6]; Hek293T cells (non-leukemic control cell line), 15 μM) was 70.6 ± 0.04% and the viability at 24 h, 20 µM ([6]; Hek293T cells (non-leukemic control cell line), 20 μM) was 65.5 ± 0.1%. For the same compound, the viability at 24 h, 30 µM ([6]; Hek293T cells (non-leukemic control cell line), 30 μM) was 57.4 ± 0.09%, the viability at 24 h, 50 µM ([6]; Hek293T cells (non-leukemic control cell line), 50 μM) was 50.7 ± 0.05% and the viability at 24 h, 70 µM ([6]; Hek293T cells (non-leukemic control cell line), 70 μM) was 48.8 ± 0.02%. The viability at 24 h, 100 µM ([6]; Hek293T cells (non-leukemic control cell line), 100 μM) was 47.9 ± 0.01%, the viability at 24 h, 150 µM ([6]; Hek293T cells (non-leukemic control cell line), 150 μM) was 47.7 ± 0.02% and the viability at 24 h, 200 µM ([6]; Hek293T cells (non-leukemic control cell line), 200 μM) was 47 ± 0.02%. For the same compound, the viability at 24 h, 1 µM ([6]; Hek293T cells, 1 μM) was 87 ± 0.15% and the “anticancer activity according to MTT assay results” value [7] was “high anticancer activity”.
